According to patent US11793880B2, “Conjugates of quaternized tubulysin compounds” (Seagen Inc., priority 2015, dated 2023):

Experiments:
Type in all cases: cell-based
HL60, AML = assay: In vitro assays - tubulysin free drugs, CellTiter-Glo growth inhibition; details: Homo sapiens, HL-60, 96 h, Table 3; lantern-made analogues >85% purity, 96 hour exposure
Description: (§1) In vitro assays. Cells cultured in log-phase growth were seeded for 24 h in 96-well plates containing 150 μL RPMI 1640 supplemented with 20% FBS. Serial dilutions of antibody-drug conjugates in cell culture media were prepared at 4× working concentrations; 50 μL of each dilution was added to the 96-well plates. Following addition of ADC, cells were incubated with test articles for 4 d at 37° C. After 96 h, growth inhibition was assessed by CellTiter-Glo® (Promega, Madison, WI) and luminescence was measured on a plate reader. The IC50 value, determined in triplicate, is defined here as the concentration that results in a 50% reduction in cell growth relative to untreated controls.
(§2) In vitro assays—tubulysin free drugs. Cells were treated for 96 hours with tubulysin ether analogs (40-42) or tubulysin M (7), then assessed for viability as described in the methods.
(§3) The tubulysin ester analogs (133-137) and unsaturated ether analogs (176-179) were tested in vitro for potency relative to tubulysin M (7), following a 96 hour exposure. As shown by IC50 values (nM) of Table 2, Tubulysin esters 133-136 performed comparably to tubulysin M, with similar potencies across of the cell lines.
(§4) A series of analogues of the ethyl ether tubulysin compound TubOEt (41) were synthesized on solid phase lanterns that maintain the ethyl ether substitution, while either varying the residue at the Ile position (203-215) or the Mep position (216-221). Following cleavage from the solid phase, the analogues were obtained in >85% purity and tested without further purification. The compounds were tested in vitro for potency relative to a sample of TubOEt synthesized in parallel on a lantern (41-lantern), following a 96 hour exposure, with IC5O values expressed in nM (Table 3). While in many cases an attenuation in activity was observed relative to 41-lantern, some well-tolerated substitutions were found. […] While this stereochemical preference is not observed when Ile is replaced with O-methyl threonine (207) or O-methyl allothreonine (206), bulkier substituents led to a greater differentiation. […] Replacement of the Mep residue was generally less-well tolerated.

HL60/RV, MDR + AML = assay: as above; details: Homo sapiens, HL-60, 96 h, Table 3; lantern-made analogues >85% purity, 96 hour exposure
Description: as §1, §2, §3, §4

L540cy, HL = assay: as above; details: L540cy, 96 h, Table 3; lantern-made analogues >85% purity, 96 hour exposure
Description: as §1, §2, §3, §4

HepG2, HCC = assay: In vitro assays - TubOEt analogues, CellTiter-Glo growth inhibition; details: Homo sapiens, Table 3, lantern-made analogues >85% purity, 96 hour exposure
Description: as §1, §4

Ramos, NHL = assay: as above; details: Homo sapiens, Table 3, lantern-made analogues >85% purity, 96 hour exposure
Description: as §1, §4

U266 MM = assay: as above; details: Homo sapiens, U-266; Table 3; lantern-made analogues >85% purity, 96 hour exposure
Description: as §1, §4

[1] = tested on: HepG2, L540cy, Ramos, U266, HL60, HL60/RV cell lines; assay: In vitro assays - TubOEt analogues, statements across the cell line panel; details: Table 3 cell lines, 96 hour exposure
Description: as §1, §4

CCO[C@H](C[C@H](C(C)C)N(C)C(=O)[C@@H](NC(=O)C1CCC(F)(F)CN1C)[C@@H](C)CC)c1nc(C(=O)N[C@@H](Cc2ccccc2)C[C@H](C)C(=O)O)cs1 (stereo partly drawn) [Compound 216, (2S,4R)-4-(2-((1R,3R)-3-((2S,3S)-2-(5,5-difluoro-1-methylpiperidine-2-carboxamido)-N,3-dimethylpentanamido)-1-ethoxy-4-methylpentyl)thiazole-4-carboxamido)-2-methyl-5-phenylpentanoic acid]
IC50 (HL60, AML): 61 nM | IC50 (HL60/RV, MDR + AML): > 1000 nM | IC50 (L540cy, HL): 12 nM | IC50 (HepG2, HCC): 58 nM | IC50 (Ramos, NHL): 10 nM | IC50 (U266 MM): 9 nM | potency / cytotoxicity of TubOEt analogues, in words [1]: decrease in the observed cytotoxicity

CCO[C@H](C[C@H](C(C)C)N(C)C(=O)[C@@H](NC(=O)C12CC(CCN1C)C2)[C@@H](C)CC)c1nc(C(=O)N[C@@H](Cc2ccccc2)C[C@H](C)C(=O)O)cs1 [Compound 217, (2S,4R)-4-(2-((1R,3R)-3-((2S,3S)—N,3-dimethyl-2-(2-methyl-2-azabicyclo[3.1.1]heptane-1-carboxamido)pentanamido)-1-ethoxy-4-methylpentyl)thiazole-4-carboxamido)-2-methyl-5-phenylpentanoic acid]
IC50 (HL60, AML): 4 nM | IC50 (HL60/RV, MDR + AML): 244 nM | IC50 (L540cy, HL): 1 nM | IC50 (HepG2, HCC): 2 nM | IC50 (Ramos, NHL): 0.4 nM | IC50 (U266 MM): 0.4 nM | potency / cytotoxicity of TubOEt analogues, in words [1]: most potent compounds obtained in this series

CCO[C@H](C[C@H](C(C)C)N(C)C(=O)[C@@H](NC(=O)[C@H]1[C@H]2CC[C@H](CC2)N1C)[C@@H](C)CC)c1nc(C(=O)N[C@@H](Cc2ccccc2)C[C@H](C)C(=O)O)cs1 [Compound 218]
IC50 (HL60, AML): 24 nM | IC50 (HL60/RV, MDR + AML): > 1000 nM | IC50 (L540cy, HL): 5 nM | IC50 (HepG2, HCC): 9 nM | IC50 (Ramos, NHL): 6 nM | IC50 (U266 MM): 7 nM | potency / cytotoxicity of TubOEt analogues, in words [1]: decrease in the observed cytotoxicity

CCO[C@H](C[C@H](C(C)C)N(C)C(=O)[C@@H](NC(=O)[C@H]1[C@@H]2CC[C@@H](C2)N1C)[C@@H](C)CC)c1nc(C(=O)N[C@@H](Cc2ccccc2)C[C@H](C)C(=O)O)cs1 [Compound 219, (2S,4R)-4-(2-((1R,3R)-3-((2S,3S)—N,3-dimethyl-2-((1S,3R,4R)-2-methyl-2-azabicyclo[2.2.1]heptane-3-carboxamido)pentanamido)-1-ethoxy-4-methylpentyl)-thiazole-4-carboxamido)-2-methyl-5-phenylpentanoic acid]
IC50 (HL60, AML): 25 nM | IC50 (HL60/RV, MDR + AML): > 1000 nM | IC50 (L540cy, HL): 6 nM | IC50 (HepG2, HCC): 19 nM | IC50 (Ramos, NHL): 8 nM | IC50 (U266 MM): 8 nM | potency / cytotoxicity of TubOEt analogues, in words [1]: decrease in the observed cytotoxicity

CCO[C@H](C[C@H](C(C)C)N(C)C(=O)[C@@H](NC(=O)[C@@]1(C)CCCN1C)[C@@H](C)CC)c1nc(C(=O)N[C@@H](Cc2ccccc2)C[C@H](C)C(=O)O)cs1 [Compound 221, (2S,4R)-4-(2-((1R,3R)-3-((2S,3S)-2-((R)-1,2-dimethylpyrrolidine-2-carboxamido)-N,3-dimethylpentanamido)-1-ethoxy-4-methylpentyl)thiazole-4-carboxamido)-2-methyl-5-phenylpentanoic acid]
IC50 (HL60, AML): 12 nM | IC50 (HL60/RV, MDR + AML): 522 nM | IC50 (L540cy, HL): 1 nM | IC50 (HepG2, HCC): 4 nM | IC50 (Ramos, NHL): 1 nM | IC50 (U266 MM): 2 nM | potency / cytotoxicity of TubOEt analogues, in words [1]: most potent compounds obtained in this series
